Data on two compounds can be found in patent US5066652A, “Thiomethyl and sulfinylmethyl derivatives having gastric acid antisectetory activity and pharmaceutical compositions containing them” (Chiesi Farmaceutici S.p.A., priority 1988, dated 1991).

Data set [1] deals with secretion of hydrochloric acid in the stomach (Shay ulcers). The experiment in a line: Antisecretory activity - Shay ulcers (pylorus-ligated rat). The format is in vivo. The settings on record: for Emax: Rattus norvegicus, α=1 represents 100% inhibition of gastric acid hypersecretion, read-out: α (approximate value of intrinsic activity); for Emax / ED50: 2 h; for ED50: rat, pylorus ligation, intraduodenal or intravenous. As to the method:
Antisecretory activity--Shay ulcers The gastric secretory inhibitory activity of the compounds of general formula (I) was determined in case of hypersecretion induced in the rat by ligation of gastroduodenal junction according to the procedure described by Shay (Shay H. et al, Gasgroenterology 5, 43-61, 1945). […] Thereafter, they were fasted for 24 hours, with water ad libitum, which period was sufficient to assure a good gastric emptying, then laparectomized under light ether anesthesia, so as to allow to effect a pylorus ligation as closer as possible to the gastroduodenal junction. Two hours after the ligation, the animals were killed by means of an ether excess and stomaches were removed. Gastric contents were recovered, after filtration through a gauze, and placed in graduated test-tubes and centrifuged at 3000×g for 15 minutes. The following parameters were evaluated on the surnatant: volume (ml); pH; free acidity by conversion of pH into H^+ μEq by means of Moore table (Ann. New York Acad. Sci. 1967, 866-874); titrable acidity, by titration of an amount with 0.02N NaOH, using phenolphtalein as the indicator. […] The results were expressed as percent inhibition of hypersecretion induced by pylorus ligation in the control rats. The obtained results are reported in table 3 as: ED50 (μmol/kg) calculated on the basis of the equation of the linear tract of does-effect curves obtained with the test compounds on volume, free and titrable acidities; […]

In data set [2] the test system is secretion of hydrochloric acid in the stomach. The experiment in a line: Lumen-perfused rat stomach in situ (histamine-induced hypersecretion). It is filed as in vivo. The settings on record: for ED50: histamine 35 mcg/kg/min, 3 hours; for ED50 / α (intrinsic activity): intraduodenal; for α (intrinsic activity): histamine. As to the method: Lumen-perfused rat stomach in situ The experiments were done according to Ghosh M. N. and Schild H. O. (Br. J. Pharmacol. 13, 54-61, 1958). […] After a midline abdominal incision, a PVC tube was inserted into the stomach via the esophagus and the stomach was perfused with saline (37° C.) at a rate of 1 ml/min. A second tube draining the pylorus was inserted through the abdominal wall for collection of gastric secretion. […] After equilibration of basal secretion an hypersecretion was induced by infusion of histamine 35 mcg/kg/min, through the femoral vein. […] Mean gastric output was determined for a 3 hours test period following drug administration. The last 30 minutes interval prior to dosing was used as a control. The dose-response relationship was established using the maximum inhibition obtained at each individual dose.

Data set [3] has as its system gastric hemorrhagic lesions induced by absolute ethanol. Briefly: Protection against gastric lesions induced in rats by necrotizing agents (absolute ethanol). The format is in vivo. Conditions: po; rat, gavage 30 minutes before 1 ml absolute ethanol; lesion score ≤ 2 considered protected. As to the method: Protection against gastric lesions induced in rats by necrotizing agents
The experiments were done on male rats weighing 260-300 g starved (with free access to water) for 18 hours.
Absolute ethanol was administered by gavage in the volume of 1 ml.
Test substances or the vehicle alone for the controls were given by gavage 30 minutes before the necrotizing agent in a 5% suspension of methylcellulose volume 2.5 ml kg^-1. One hour after administration of the necrotizing agent, the animals were killed and examined for lesions of the glandular portion of the gastric mucosa. The lesions presenting as blackish lesions grouped in patches of varying size, usually parallel to the major axis of the stomach, were scored according to the following arbitrary scale:
1=hyperemic mucosa, or up to 3 small patches;
2=from 4 to 10 small patches;
3=more than 10 small or up to 3 medium-sized patches;
4=from 4 to 6 medium-sized patches;
5=more than 6 medium-sized or up to 3 large patches;
6=from 4 to 6 large patches;
7=from 7 to 10 large patches;
8=more than 10 large patches or extensive necrotic zones.
"Small"0 was defined as up to 2 mm across (max diameter), "medium-sized" as between 2 and 4 mm across and "large" as more than 4 mm across.
Animals with gastric lesion score ≤ 2 were considered protected.
ED50 values were calculated according to Wilcoxon method.
The results are expressed in table 5.

Another data set deals with stomach of animals. Conditions: animals treated over a long period; cited from earlier work.
The nature of data set [4]: Toxicity after single administration (acute toxicity, oral). The settings on record: mouse, in vivo, mice, p.o., lethality 7 days after treatment, Probits method, read-out: Acute Toxicity (DL50 approx. mg/kg p.o.). As to the method:
Toxicity after single administration.
The tests have been carried out in IVA:NMRI (SPF) mice fasted with water ad libitum since 18 hours before treatment.
The compounds were administered by the oral route, at constant volume (10 ml/kg) in a 0.2% aqueous solution of Tween 80.
On the basis of lethality observed 7 days after the treatment, the approximate LD50 were determined according to the Probits method.

The mark [5] stands for this setting: free acid output, read-out: ED50 free acid output.
[6] abbreviates: secretion volume, read-out: ED50 volume.
Where [7] appears, read: titratable acid output, read-out: ED50 titratable acid output.
[8] abbreviates: read-out: ED50 free acid output.
[9] abbreviates: read-out: ED50 titratable acid output.

Each structure is given as a SMILES string. Read-outs that look alike come from different tables or passages of the source.

Consider `COc1ccc2[nH]c([S+]([O-])Cc3ncc(C)c(OC)c3C)nc2c1` (centres unmarked) [Omeprazole, reference compound], for which the Emax in data set [1] came out at 100%. The ED50 in data set [1] (setting [5]) turned out to be 1.8 µmol/kg; in data set [1] (setting [6]), 4.2 µmol/kg; in data set [1] (setting [7]), 2.3 µmol/kg; in data set [2] (setting [8]), 2.23 µmol/kg; in data set [2] (setting [9]), 2.3 µmol/kg; in data set [3], 73 mg/kg. In addition, the “α (intrinsic activity)” value in data set [2] is 1. For the same compound, the “carcinomas at the bottom of the stomach” value with stomach of animals is given as “high incidence of carcinomas”.

Turning to `CN(C)c1ccccc1CSc1nccn1-c1cccc(F)c1` [XIX, 1-(3'-fluorophenyl)-2-[2'-(N,N-dimethylanilyl)methylthio]imidazole.2HCl], the LD50 at 168 h in data set [4] was about 1000 mg/kg. For the same compound, in data set [1], the Emax came to 100%. The ED50 was 47.3 µmol/kg in data set [1] (setting [5]); 108 µmol/kg in data set [1] (setting [6]); 64.3 µmol/kg in data set [1] (setting [7]); 32.2 µmol/kg in data set [2] (setting [8]); 26.7 µmol/kg in data set [2] (setting [9]); 70 mg/kg in data set [3]. Moreover, the “PR (potency ratio in comparison with Omeprazole)” value in data set [1] (ratio of mean ED50 on the 3 parameters of test compound to mean ED50 of omeprazole) was 26,4. Besides, the “α (intrinsic activity)” value in data set [2] is recorded as 1. In addition, the “PR = potency ratio” value in data set [2] (in comparison with omeprazole) is recorded as 13.0.
